Assay results reported in paper PMC10819771 (Pharmaceuticals, 2023).
Values joined by “and” are separate entries in the source; they are usually repeats but may differ in a detail not shown here. Identical values can stand only once. Like-named read-outs stand apart in the source and are kept apart here.

Key:
[1] = system: 24TTG (DNA, G4) TTGGGTTAGGGTTAGGGTTAGGGA; assay: native ESI-MS; details: 100 mM NH4+ (ammonium acetate), pH 6.8, 10 µM DNA, 20 µM ligand, first of two successive steps
FK-RAST = assay: FRET-melting, FK-RAST; assay type: binding; details: ligand 2 μM, DNA 0.2 μM, 10 mM KCl, 90 mM LiCl, pH 7.2
A2780 = assay: MTT antiproliferative assay, A2780; assay type: cell-based, human; details: for IC50: Homo sapiens, A2780, MTT, 72 h, ovarian cancer cells, read-out: IC50 Values (μM) ± SEM A2780; for Selectivity Index HEK293/A2780: IC50 HEK293 / IC50 A2780
In short: (§1)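 Treatment lasted 72 h at six concentrations (0.1–30.0 µM) on cells plated the night before. Read-out: MTT, 4 h, then A545 nm after DMSO solubilisation, relative to untreated cells; two or more independent experiments, five replicate wells.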

MCF-7 = assay: MTT antiproliferative assay, MCF-7; assay type: cell-based, human; details: for IC50: Homo sapiens, MCF7, 72 h, MTT, 72 h, breast cancer cells, read-out: IC50 Values (μM) ± SEM MCF-7; for Selectivity Index HEK293/MCF-7: IC50 HEK293 / IC50 MCF-7
In short: as §1

FdxT = assay: FRET-melting, duplex control FdxT; assay type: binding; details: ligand 2 μM, DNA 0.2 μM, 10 mM KCl, 90 mM LiCl, pH 7.2, hairpin duplex
Fc-MYCT = assay: FRET-melting, Fc-MYCT; assay type: binding; details: ligand 2 μM, DNA 0.2 μM, K+ conditions, pH 7.2
BCL-2 = assay: Native electrospray mass spectrometry, BCL-2; assay type: binding; details: 10 µM DNA, 20 µM ligand; for Bound DNA (%) BCL-2: 100 mM ammonium acetate
Procedure: (§2) These parameters ensured a good signal intensity without disrupting noncovalent complexes, which was verified using d[G4T4G4]2 as a control. Oligonucleotides were purchased lyophilized, and RP-cartridge purified from Eurogentec (Kanaka Eurogentec, Seraing, Belgium), then buffer exchanged with ammonium acetate (5 M; Sigma-Aldrich, Saint-Quentin-Fallavier, France) using Amicon Ultra (3 K cut-off; Merck Millipore, Cork, Ireland). Sample solutions were prepared by diluting the proper volume of oligonucleotide stock solutions to reach 10 µM of DNA and 20 µM of ligand, in 100 mM ammonium acetate. The solutions were incubated for 16 h at 4 °C before analysis. Kd were calculated as already described.

[2] = system: ds26 (DNA, duplex) CAATCGGATCGAATTCGATCCGATTG; assay: native ESI-MS; details: 100 mM NH4+ (ammonium acetate), pH 6.8, 10 µM DNA, 20 µM ligand, first of two successive steps
[3] = system: c-MYC (DNA, G4) TGAGGGTGGGTAGGGTGGGTAA; assay: native ESI-MS; details: 100 mM NH4+ (ammonium acetate), pH 6.8, 10 µM DNA, 20 µM ligand, first of two successive steps
SiHa = assay: MTT antiproliferative assay, SiHa; assay type: cell-based, human; details: for IC50: Homo sapiens, SiHa, MTT, 72 h, cervical cancer cells, read-out: IC50 Values (μM) ± SEM SiHa; for Selectivity Index HEK293/SiHa: IC50 HEK293 / IC50 SiHa
In short: as §1

ds26 = assay: Native electrospray mass spectrometry, duplex control ds26; assay type: binding; details: 10 µM DNA, 20 µM ligand; for Bound DNA (%) ds26: 100 mM ammonium acetate, hairpin duplex control
Procedure: as §2

[4] = system: human telomeric sequence 24TTG; assay: Native electrospray mass spectrometry, 24TTG; assay type: binding; details: 10 µM DNA, 20 µM ligand; for Bound DNA (%) 24TTG: 100 mM ammonium acetate
Procedure: as §2

FBCL-2T = assay: FRET-melting, FBCL-2T; assay type: binding; details: ligand 2 μM, DNA 0.2 μM, 10 mM KCl, 90 mM LiCl, pH 7.2
HeLa = assay: MTT antiproliferative assay, HeLa; assay type: cell-based, human; details: for IC50: Homo sapiens, HeLa, MTT, 72 h, cervical cancer cells, read-out: IC50 Values (μM) ± SEM HeLa; for Selectivity Index HEK293/HeLa: IC50 HEK293 / IC50 HeLa
In short: as §1

MDA-MB-231 = assay: MTT antiproliferative assay, MDA-MB-231; assay type: cell-based, human; details: for IC50: Homo sapiens, MDA-MB-231, 72 h, MTT, 72 h, breast cancer cells, read-out: IC50 Values (μM) ± SEM MDA-MB-231; for Selectivity Index HEK293/MDA-MB-231: IC50 HEK293 / IC50 MDA-MB-231
In short: as §1

c-MYC = assay: Native electrospray mass spectrometry, c-MYC; assay type: binding; details: 10 µM DNA, 20 µM ligand; for Bound DNA (%) c-MYC: 100 mM ammonium acetate
Procedure: as §2

[5] = system: human telomeric sequence F21T; assay: FRET-melting, F21T; assay type: binding; details: ligand 2 μM, DNA 0.2 μM, 10 mM KCl, 90 mM LiCl, pH 7.2
[6] = first binding event (1:1 complex), read-out: Kd1 BCL-2
[7] = second binding event (2:1 complex), read-out: Kd2 BCL-2
[8] = first binding event, read-out: Kd1 ds26
[9] = second binding event, read-out: Kd2 ds26
[10] = first binding event (1:1 complex), read-out: Kd1 24TTG
[11] = second binding event (2:1 complex), read-out: Kd2 24TTG
[12] = first binding event (1:1 complex), read-out: Kd1 c-MYC
[13] = second binding event (2:1 complex), read-out: Kd2 c-MYC

Compound	ΔT1/2 (°C) FK-RAST (FK-RAST)	IC50 (A2780)	IC50 (MCF-7)	ΔT1/2 (°C) FdxT (FdxT)	ΔT1/2 (°C) Fc-MYCT (Fc-MYCT)	Bound DNA (%) BCL-2 (BCL-2)	Kd (BCL-2; [6])	Kd (BCL-2; [7])	IC50 (SiHa)	Bound DNA (%) ds26 (ds26)	Kd (ds26; [8])	Kd (ds26; [9])	Bound DNA (%) 24TTG [4]	Kd [4, 10]	Kd [4, 11]	ΔT1/2 (°C) FBCL-2T (FBCL-2T)	IC50 (HeLa)	IC50 (MDA-MB-231)	Bound DNA (%) c-MYC (c-MYC)	Kd (c-MYC; [12])	also measured
CN(C)CCCNCc1ccc(-c2nc(-c3ccc(CNCCCN(C)C)cc3)c3cc(-c4ccccc4)ccc3n2)cc1 [Compound 12b, 2,4-bis{4-[(3-dimethylaminopropyl)aminomethyl]phenyl}-6-phenylquinazoline]	17.4 ± 0.6 °C	1.2 ± 0.27 µM	0.58 ± 0.02 µM	0.4 ± 0.3 °C	5.8 ± 0.9 °C	79%	5.6 µM	2.8 µM	1.08 ± 0.1 µM	48%	17 µM	130 µM	77%	9.5 µM	1.5 µM	8.9 ± 0.7 °C	0.82 ± 0.31 µM	0.7 ± 0.16 µM	70%	5.8 µM	Kd1 ([1]; Kd2 1.5, cooperative): 9.5 µM; Selectivity Index HEK293/A2780 (A2780): >25.0; Selectivity Index HEK293/MCF-7 (MCF-7): >51.7; Kd1 ([2]; Kd2 130): 17 µM; Kd1 ([3]; Kd2 100): 5.8 µM; Selectivity Index HEK293/SiHa (SiHa): >27.8; Selectivity Index HEK293/HeLa (HeLa): >36.6; Selectivity Index HEK293/MDA-MB-231 (MDA-MB-231): >42.8; Kd (c-MYC; [13]): 100 µM
CN1CCN(CCCCNCc2ccc(-c3nc(-c4ccc(CNCCCCN5CCN(C)CC5)cc4)c4cc(-c5ccccc5)ccc4n3)cc2)CC1 [Compound 12e, 2,4-bis{4-[(4-(4-methylpiperazin-1-yl)butyl)aminomethyl]phenyl}-6-phenylquinazoline]	33.1 °C and 33.1 ± 2.1 °C	2.19 ± 0.41 µM	1.27 ± 0.01 µM	5.4 ± 1.6 °C	19.5 °C and 19.5 ± 1.0 °C	79%	6.2 µM	2.2 µM	0.63 ± 0.05 µM	36%	30 µM	280 µM	72%	14 µM	1.9 µM	22.7 °C and 22.7 ± 0.4 °C	1.27 ± 0.02 µM	0.89 ± 0.46 µM	75%	4.3 µM	Kd1 ([1]; Kd2 1.9, cooperative): 14 µM; ΔT1/2 (°C) F21T [5]: 33.9 °C and 33.9 ± 0.5 °C; Kd1 ([2]; Kd2 280): 30 µM; Kd1 ([3]; Kd2 74): 4.3 µM; Kd (c-MYC; [13]): 74 µM
CN(C)CCCNCc1ccc(-c2cc(-c3ccc(CNCCCN(C)C)cc3)c3cc(-c4ccccc4)ccc3n2)cc1 [Compound 13a, 2,4-bis{4-[(3-dimethylaminopropyl)aminomethyl]phenyl}-6-phenylquinoline]	15.0 ± 0.3 °C	0.9 ± 0.04 µM	0.54 ± 0.01 µM	0.4 ± 0.1 °C	7.3 ± 1.0 °C	92%	1.6 µM	0.75 µM	0.99 ± 0.15 µM	53%	14 µM	95 µM	81%	3.7 µM	7.1 µM	7.7 ± 0.6 °C	0.5 ± 0.01 µM	0.58 ± 0.02 µM	78%	3.8 µM	Kd1 ([1]; Kd2 7.1): 3.7 µM; Selectivity Index HEK293/A2780 (A2780): >33.3; Selectivity Index HEK293/MCF-7 (MCF-7): >55.5; ΔT1/2 (°C) F21T [5]: 21.5 ± 0.4 °C; Kd1 ([2]; Kd2 95): 14 µM; Kd1 ([3]; Kd2 36): 3.8 µM; Selectivity Index HEK293/SiHa (SiHa): >30.3; Selectivity Index HEK293/HeLa (HeLa): >60.0; Selectivity Index HEK293/MDA-MB-231 (MDA-MB-231): >51.7; Kd (c-MYC; [13]): 36 µM
CN1CCN(CCCCNCc2ccc(-c3cc(-c4ccc(CNCCCCN5CCN(C)CC5)cc4)c4cc(-c5ccccc5)ccc4n3)cc2)CC1 [Compound 13d, 2,4-bis{4-[(4-(4-methylpiperazin-1-yl)butyl)aminomethyl]phenyl}-6-phenylquinoline]	12.7 ± 2.2 °C	2.1 ± 0.09 µM	1.62 ± 0.09 µM	0.8 ± 0.2 °C	10.6 ± 0.7 °C	33%	53 µM	20 µM	1.11 ± 0.37 µM	18%	85 µM	460 µM	39%	29 µM	83 µM	5.0 ± 1.1 °C	2.27 ± 0.89 µM	1.64 ± 0.11 µM	44%	20 µM	Kd1 ([1]; Kd2 83): 29 µM; ΔT1/2 (°C) F21T [5]: 8.0 ± 1.5 °C; Kd1 ([2]; Kd2 460): 85 µM; Kd1 ([3]; Kd2 440): 20 µM; Kd (c-MYC; [13]): 440 µM
